Test results as given in patent US20100137448A1, “Methods for Treating Neuropsychiatric Disorders with NMDA Receptor Antagonists” (priority 2000, published 2010).
Entries after “also recorded” stand apart in the source; their conditions may differ.

Experiments:
cerebrocortical neurons = experiment: NMDA-induced apoptosis of cerebrocortical neurons (in vitro protection); format: cell-based
Method: Cerebrocortical cultures were exposed to 300 μM NMDA for 20 mm with or without various concentrations of compound 7. The next day cultures were analyzed by neuronal apoptosis as described in Example 19.
Under these conditions (300 μM NMDA exposure for 20 mm, followed by washout), neuronal apoptosis was monitored 24 hours later by propidium iodide uptake and morphology of fixed, permeabilized neurons, among other techniques (Bonfoco et al., Proc Natl Acad Sci USA (1995) 92: 7162). NMDA induced about 20% apoptosis of neurons, and that 25-100 μM compound 7 afforded protection from this damage (P<0.001, FIG. 5).

C57B1/6 mice = experiment: Murine cerebral ischemia model, intraluminal suture MCA occlusion; format: in vivo
Method: The intraluminal suture technique was used to produce a 2 hr occlusion of the middle cerebral artery (MCA), following the same protocol for focal cerebral ischemial reperfusion as published previously (Chen, et al., Neuroscience (1998) 86: 1121). However, here C57B1/6 mice were used instead of rats. […] To produce a neuroprotective concentration of compound 7, the loading dose was 100 mg/kg i.p. and the maintenance dose was 40 mg/kg i.p. every 12 hr. In each case, drug or vehicle control was initially administered 2 hr after MCA occlusion. […] The animals were sacrificed and analyzed with TTC staining 48 hr after MCA occlusion (Chen, et al., Neuroscience (1998) 86: 1121).

[1] = system: precontracted aortic vessel; experiment: Relaxation of norepinephrine-precontracted rabbit aortic rings; format: tissue-based
Method: New Zealand white female rabbits weighing 3-4 kilograms were anesthetized with sodium pentobarbital, 13 milligram per kilogram. Descending thoracic aorta were isolated, the vessels were cleaned of adherent tissue and the endothelium was removed by a gentle rubbing with a cotton-tipped applicator inserted into the lumen. The vessels were cut into 5 millimeter rings and mounted on stirrups connected to transducers by which changes in isometric tension were recorded (model TO3C, Grass Instruments, Quincy, Mass.). Vessel rings were suspended in 20 mL of oxygenated Krebs buffer at 37° C. and sustained contractions were induced with 1 μM norepinephrine. The vessels were then relaxed in a dose-dependent fashion ([…] through 10^−5 M compound 8). In some experiments vessels were pretreated with methylene blue or […] hemoglobin to block relaxations.
Relaxations were attenuated by methylene blue (c) and hemoglobin (d) indicating an NO-related effect. (b) is a control with solvent.

[2] = cited from earlier work
[3] = humans, 5 to 30 mg/day; cited from earlier work
[4] = loading dose 20 mg/kg i.p., maintenance 1 mg/kg/12 hours; cited from earlier work
human albumin = human albumin (Homo sapiens, UniProt P02768); conditions: cited from earlier work
Chain of human albumin (P02768 25-609): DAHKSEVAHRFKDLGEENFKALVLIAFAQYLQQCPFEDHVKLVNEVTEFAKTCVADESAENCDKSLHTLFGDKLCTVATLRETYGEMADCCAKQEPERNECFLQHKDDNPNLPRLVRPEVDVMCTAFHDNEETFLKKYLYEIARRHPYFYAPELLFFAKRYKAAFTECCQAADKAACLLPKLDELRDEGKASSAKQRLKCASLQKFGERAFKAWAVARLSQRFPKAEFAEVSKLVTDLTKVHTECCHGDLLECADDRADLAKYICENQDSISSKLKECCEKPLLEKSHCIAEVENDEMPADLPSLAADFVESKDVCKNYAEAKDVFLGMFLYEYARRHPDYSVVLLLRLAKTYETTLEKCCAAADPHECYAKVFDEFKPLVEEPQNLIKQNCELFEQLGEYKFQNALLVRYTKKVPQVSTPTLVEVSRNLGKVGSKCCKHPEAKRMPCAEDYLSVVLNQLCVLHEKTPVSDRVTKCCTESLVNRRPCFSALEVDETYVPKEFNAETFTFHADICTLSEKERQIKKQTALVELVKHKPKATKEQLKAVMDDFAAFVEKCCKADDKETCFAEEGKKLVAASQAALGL

CC12CC3(C)CC(N)(C1)CC(O[N+](=O)[O-])(C2)C3.Cl [Compound 7, 1-amino-3,5-dimethyl-7-nitrateadamantane hydrochloride]
concentration affording protection from NMDA-induced apoptosis (cerebrocortical neurons; 300 μM NMDA 20 mm, washout, apoptosis monitored 24 hours later, NMDA induced about 20% apoptosis, P<0.001): 25 to 100 µM | NMDA-induced neuronal apoptosis (cerebrocortical neurons; 300 μM NMDA for 20 mm, analysed next day, various concentrations, dose-dependent, P<0.001, n=3 cultures): largely prevented | cerebral damage after stroke (C57B1/6 mice; 2 hr MCA occlusion, loading 100 mg/kg i.p., maintenance 40 mg/kg i.p. every 12 hr, first dose 2 hr after occlusion, TTC staining 48 hr, n=3, P<0.03 from control, P<0.05 from memantine): effective in decreasing cerebral damage after stroke | neuroprotection compared with memantine (C57B1/6 mice; memantine 20 mg/kg i.p. loading, 1 mg/kg/12 hours maintenance, compound 7 100 mg/kg i.p. loading, 40 mg/kg i.p. every 12 hr): more neuroprotective than memantine | effect on blood vessel at 10 μM ([1]; 10 μM concentration, FIG. 8): modest relaxation

CC12CC3CC(C)(C1)CC(N)(C3)C2 [memantine, 1-amino-3,5-dimethyladamantane]
average half-life, first therapeutically relevant phase ([2]; biphasic elimination, first phase): 4 to 9 h | average half-life, second phase ([2]; biphasic elimination, second phase): 40 to 65 h | elimination by the renal route ([2]; in vivo): 75%-90% | fecal excretion ([2]; in vivo): 10%-25% | mean CSF/serum ratio [3]: 0.52 | parenchymal levels in the brain [4]: 1 to 10 µM | bound to human albumin (human albumin): < 10%

CC(=O)NC12CC3(C)CC(C)(CC(CO)(C3)C1)C2 [Compound 17, 1-Acetamido-3,5-dimethyl-7-hydroxymethyladamantane]
melting point: 152 to 153 °C

CC12CC3(C)CC(O)(C1)CC(N(Cc1ccccc1)Cc1ccccc1)(C2)C3 [Compound 10, 1,1-dibenzylamino-3,5-dimethyl-7-hydroxy-adamantane]
effect on blood vessel, compared with solvent (EtOH) ([1]; FIG. 8): either no effect or slight contractions of blood vessels; also recorded: either no effect or slight blood vessel contractions

CC(=O)NC12CC3(C)CC(C)(C1)CC(O[N+](=O)[O-])(C3)C2 [Compound 8, 1-acetamido-3,5-dimetbyl-7-nitrateadamantane]
effect on precontracted aortic vessel ([1]; endothelium-denuded rings, 1 μM norepinephrine): relaxes a precontracted aortic vessel in a dose-dependent fashion | relaxations after pretreatment with hemoglobin ([1]; vessels pretreated with hemoglobin): attenuated | relaxations after pretreatment with methylene blue ([1]; vessels pretreated with methylene blue): attenuated

1-amino-3,5-dimethyl-7-hydroxyadamantane hydrochloride [Compound 9]
effect on blood vessel, compared with solvent (EtOH) ([1]; FIG. 8, hydrochloride): either no effect or slight blood vessel contractions | effect on blood vessel, compared with solvent (EtOH) ([1]; FIG. 8, listed as compound 9, hydrochloride): either no effect or slight contractions of blood vessels

CC(=O)NC12CC3(C)CC(C)(CC(O)(C3)C1)C2 [Compound 3, 1-acetamido-3,5-dimethyl-7-hydroxyadamantane]
melting point: 194 to 195 °C
